Where two headings read alike, the source gives them in different places. Residues, ends and D or L forms follow the SMILES beside them.
Key:
[1] = tested on: MDA-MB-435S breast cancer cells; format: cell-based, human; conditions: 6 h
Procedure: EP-301 and EP-302 were analyzed for anti-cancer activity in vitro in a time course experiment against MDA-MB-435S breast cancer cells. EP-301 and EP-302 were freshly dissolved in saline and added into cancer cell seeded multi-well plates at increasing concentrations of 0, 0.001, 0.01, 0.1, 1, 2, 5, 10 and 100 μM. Incubations were conducted for 0.25, 0.5, 1, 2, 4, 6 h or 24 h at 37° C. Cell viability was determined using formazan conversion assays (MTT assays). Controls were treated with USP saline or 0.1% TritonX-100™ as reference for 0 and 100% cell death, respectively. Cytotoxicity was evaluated as an IC50 value derived for EP-301 and EP-302 at each time point.

[2] = tested on: MDA-MB-435S breast cancer cells; format: cell-based, human; conditions: 4 h
Procedure: Twelve different fusion constructs were analyzed for anti-cancer activity in vitro against MDA-MB-435S breast cancer cells and for hemolytic activity in vitro to human red blood cells. Fusion constructs of the following sequence were tested:
(§1) The peptide conjugates were freshly dissolved in saline and added into cancer cell seeded multi-well plates at increasing concentrations of 0, 0.001, 0.01, 0.1, 1, 2, 5, 10 and 100 μM. Incubations were conducted for 4 h at 37° C. Cell viability was determined using formazan conversion assays (MTT assays). Controls were treated with USP saline or 0.1% TritonX-100™ as reference for 0 and 100% cell death, respectively. Cytotoxicity was evaluated as an IC50 value.

human red blood cells = assay: Hemolytic activity; format: cell-based
Procedure: Hemolytic activity was studied by incubating the fusion constructs with human red blood cells at concentrations of 0.01, 0.1, 1, 10 and 50 μM for 2 hours. Saline and 0.1% Triton served as controls.
Hemolytic activity of the compounds was studied by incubating EP-301 and EP-302 with human red blood cells at concentrations of 0.01, 0.1, 1, 10 and 50 μM for 2 hours.

[3] = tested on: HL60 (Acute Myeloid Leukemia); format: cell-based, human; conditions: 24 h
Procedure: as §1, with “EP-302 was” for “The peptide conjugates were”, “6 h or 24” for “4”, “value derived for EP-302 in each cell line.” for “value.”

MDA-MB-435S (Breast) = format: cell-based, human
Procedure: as §1, with “EP-302 was” for “The peptide conjugates were”, “6 h or 24” for “4”, “value derived for EP-302 in each cell line.” for “value.”

MiaPaCa (Pancreas) = format: cell-based, human
Procedure: as §1, with “EP-302 was” for “The peptide conjugates were”, “6 h or 24” for “4”, “value derived for EP-302 in each cell line.” for “value.”

PC-3 (Prostate) = format: cell-based, human
Procedure: as §1, with “EP-302 was” for “The peptide conjugates were”, “6 h or 24” for “4”, “value derived for EP-302 in each cell line.” for “value.”

A549 (Lung) = format: cell-based
Procedure: as §1, with “EP-302 was” for “The peptide conjugates were”, “6 h or 24” for “4”, “value derived for EP-302 in each cell line.” for “value.”

CHO (Hamster Ovary) = format: cell-based
Procedure: as §1, with “EP-302 was” for “The peptide conjugates were”, “6 h or 24” for “4”, “value derived for EP-302 in each cell line.” for “value.”

DU145 (Prostate) = format: cell-based
Procedure: as §1, with “EP-302 was” for “The peptide conjugates were”, “6 h or 24” for “4”, “value derived for EP-302 in each cell line.” for “value.”

Daudi (NHL) = format: cell-based
Procedure: as §1, with “EP-302 was” for “The peptide conjugates were”, “6 h or 24” for “4”, “value derived for EP-302 in each cell line.” for “value.”

HT 116(Colon) = format: cell-based
Procedure: as §1, with “EP-302 was” for “The peptide conjugates were”, “6 h or 24” for “4”, “value derived for EP-302 in each cell line.” for “value.”

HT 29 (Colon) = format: cell-based; conditions: 6 h
Procedure: as §1, with “EP-302 was” for “The peptide conjugates were”, “6 h or 24” for “4”, “value derived for EP-302 in each cell line.” for “value.”

[4] = tested on: K562 (Chronic Myeloid Leukemia); format: cell-based; conditions: 24 h
Procedure: as §1, with “EP-302 was” for “The peptide conjugates were”, “6 h or 24” for “4”, “value derived for EP-302 in each cell line.” for “value.”

LoVo (Colon) = format: cell-based; conditions: 6 h
Procedure: as §1, with “EP-302 was” for “The peptide conjugates were”, “6 h or 24” for “4”, “value derived for EP-302 in each cell line.” for “value.”

[5] = tested on: MCF-10A (normal breast cells); format: cell-based; conditions: 24 h
Procedure: as §1, with “EP-302 was” for “The peptide conjugates were”, “6 h or 24” for “4”, “value derived for EP-302 in each cell line.” for “value.”

MCF-7 (Breast) = format: cell-based
Procedure: as §1, with “EP-302 was” for “The peptide conjugates were”, “6 h or 24” for “4”, “value derived for EP-302 in each cell line.” for “value.”

MDA-MB-231 (Breast) = format: cell-based
Procedure: as §1, with “EP-302 was” for “The peptide conjugates were”, “6 h or 24” for “4”, “value derived for EP-302 in each cell line.” for “value.”

[6] = tested on: MV4-11(Acute Myeloid Leukemia); format: cell-based; conditions: 24 h
Procedure: as §1, with “EP-302 was” for “The peptide conjugates were”, “6 h or 24” for “4”, “value derived for EP-302 in each cell line.” for “value.”

[7] = tested on: NIH-3T3 (mouse fibroblast cells); format: cell-based; conditions: 24 h
Procedure: as §1, with “EP-302 was” for “The peptide conjugates were”, “6 h or 24” for “4”, “value derived for EP-302 in each cell line.” for “value.”

OVCAR-3 (Ovary) = format: cell-based; conditions: 6 h
Procedure: as §1, with “EP-302 was” for “The peptide conjugates were”, “6 h or 24” for “4”, “value derived for EP-302 in each cell line.” for “value.”

SKOV-3 (Ovary) = format: cell-based
Procedure: as §1, with “EP-302 was” for “The peptide conjugates were”, “6 h or 24” for “4”, “value derived for EP-302 in each cell line.” for “value.”

[8] = In vivo tolerability, repeat dose, nude mice; design: species or system mouse; conditions: 5 consecutive days; for Survival [%] Day 1 / Survival [%] Day 2* / Survival [%] Day 3 / Survival [%] Day 4 / Survival [%] Day 5: BalbC/nude mice
Procedure: Body weight, blood chemistry and blood cell counts were measured. […] Blood parameters for CBC and serum chemistry were normal in treated mice of both groups.

[9] = 5 and 10 mg/kg i.v., female nude mice

In the case of CC(C)C[C@H](NC(=O)[C@H](CCCNC(=N)N)NC(=O)[C@H](C)NC(=O)[C@H](CO)NC(=O)[C@H](CCCNC(=N)N)NC(=O)[C@H](CCCNC(=N)N)NC(=O)[C@H](CCC(N)=O)NC(=O)[C@H](CC(C)C)NC(=O)[C@H](CCCNC(=N)N)NC(=O)[C@H](C)NC(=O)[C@H](CCCNC(=N)N)NC(=O)[C@H](CCCCN)NC(=O)[C@H](C)NC(=O)[C@H](Cc1ccccc1)NC(=O)[C@H](CCCCN)NC(=O)[C@H](CCCCN)NC(=O)[C@H](C)NC(=O)[C@H](Cc1ccccc1)NC(=O)[C@H](CCCCN)NC(=O)[C@H](C)NC(=O)[C@H](Cc1ccccc1)NC(=O)[C@H](CCCCN)NC(=O)[C@H](CCCCN)NC(=O)[C@H](C)NC(=O)[C@H](Cc1ccccc1)NC(=O)[C@H](CCCCN)NC(=O)[C@H](C)NC(=O)[C@H](Cc1ccccc1)NC(=O)[C@@H](N)CCCCN)C(=O)N[C@@H](CO)C(=O)N[C@@H](C)C(=O)N[C@@H](CCCCN)C(=O)O [EP-302] (H-KFAKFAKKFAKFAKKFAKRARLQRRSARLSAK-OH), the IC50 [1] is reported as 2.3 µM, the IC50 [2] is reported as 0.9 ± 0.05 µM and the HA50 (human red blood cells) is reported as “Not hemolytic”. It also gave an IC50 [3] of 0.5 µM, an IC50 (MDA-MB-435S (Breast); 6 h) of 1.4 ± 0.09 µM and an IC50 (MDA-MB-435S (Breast); 24 h) of 1.7 ± 0.2 µM. For the same compound, the IC50 (MiaPaCa (Pancreas); 6 h) was 2.1 ± 0.2 µM, the IC50 (MiaPaCa (Pancreas); 24 h) was 1.9 ± 0.1 µM and the IC50 (PC-3 (Prostate); 6 h) was 3.3 ± 0.3 µM. For the same compound, the IC50 (PC-3 (Prostate); 24 h) was 3.2 ± 0.8 µM, the IC50 (A549 (Lung); 6 h) was 4.3 ± 0.6 µM and the IC50 (A549 (Lung); 24 h) was 2.4 ± 0.08 µM. For the same compound, the IC50 (CHO (Hamster Ovary); 6 h) was 3.1 ± 0.9 µM, the IC50 (CHO (Hamster Ovary); 24 h) was 3.7 ± 0.2 µM and the IC50 (DU145 (Prostate); 6 h) was 3.1 ± 0.02 µM. For the same compound, the IC50 (DU145 (Prostate); 24 h) was 5.1 ± 0.1 µM, the IC50 (Daudi (NHL); 6 h) was 3.2 ± 0.4 µM and the IC50 (Daudi (NHL); 24 h) was 2.5 ± 0.05 µM. It also gave an IC50 (HT 116(Colon); 6 h) of 6.7 ± 0.9 µM, an IC50 (HT 116(Colon); 24 h) of 4.8 ± 1.1 µM and an IC50 (HT 29 (Colon)) of 45.8 ± 0.4 µM. It also gave an IC50 [4] of 2.8 µM, an IC50 (LoVo (Colon)) of 14.1 ± 0.5 µM and an IC50 [5] of 68 µM. It also gave an IC50 (MCF-7 (Breast); 6 h) of 5.5 ± 0.4 µM, an IC50 (MCF-7 (Breast); 24 h) of 6.4 ± 0.9 µM and an IC50 (MDA-MB-231 (Breast); 6 h) of 4.6 ± 0.9 µM. It also gave an IC50 (MDA-MB-231 (Breast); 24 h) of 3.6 ± 0.4 µM, an IC50 [6] of 0.5 µM and an IC50 [7] of 53 µM. It also gave an IC50 (OVCAR-3 (Ovary)) of 5.2 ± 0.3 µM, an IC50 (SKOV-3 (Ovary); 6 h) of 5.1 ± 0.2 µM and an IC50 (SKOV-3 (Ovary); 24 h) of 5.2 ± 0.9 µM. For the same compound, the “Survival [%] Day 1” value ([8]; 5 mg/kg i.v.) was 100 (5/5) %, the “Survival [%] Day 2*” value ([8]; 5 mg/kg i.v.) was 100 (5/5) % and the “Survival [%] Day 3” value ([8]; 5 mg/kg i.v.) was 100 (5/5) %. For the same compound, the “Survival [%] Day 4” value ([8]; 5 mg/kg i.v.) was 100 (5/5) %, the “Survival [%] Day 5” value ([8]; 5 mg/kg i.v.) was 100 (5/5) % and the “Survival [%] Day 1” value ([8]; 10 mg/kg i.v.) was 100 (5/5) %. The “Survival [%] Day 2*” value ([8]; 10 mg/kg i.v.) was 100 (5/5) %, the “Survival [%] Day 3” value ([8]; 10 mg/kg i.v.) was 100 (5/5) % and the “Survival [%] Day 4” value ([8]; 10 mg/kg i.v.) was 100 (5/5) %. For the same compound, the “Survival [%] Day 5” value ([8]; 10 mg/kg i.v.) was 100 (5/5) %, the “Blood parameters for CBC and serum chemistry” value [8, 9] was “normal” and the Body weight [8, 9] was “remained stable”. For the same compound, the “Signs of toxicity / tolerability” value [8, 9] was “no signs of toxicity”.
